Data reported in patent US8476319B2, “Methods of treating ear infections” (3M Innovative Properties Company, priority 2005, dated 2013).

Key:
[1] = Transport through the tympanic membrane, GC of saline recovered from middle ear; assay type: in vivo, chinchilla; conditions: for formulation component detected by GC in saline recovered from the middle ear: Example 2 formulation in outer ear next to tympanic membrane, samples at 15, 30, 60 min
Description: Example 2 formulation was evaluated for transportability across the ear drum (tympanic membrane) and into the middle ear with an animal model test using chinchillas (400 g to 500 g). A cotton plug saturated with Example 2 formulation was placed against the outer ear membrane of a chinchilla. An opening was made into the middle ear through the bulla and 1 mL saline was placed in the middle ear. At 15, 30, and 60 min. the saline was withdrawn and replaced with fresh saline. Tympanometry was completed before and after the test compositions were applied to ensure the tympanic membrane was intact (without perforations). The saline samples were kept at 4° C. until assayed.
GC Analysis: Six samples of saline recovered from the middle ear of a chinchilla were analyzed by GC. They were recovered from both the left and right ears of the test animal at 15, 30, and 60 min after an antibacterial formulation was placed in the outer ear next to the tympanic membrane. The GC analysis detected the formulation components of GML, FINSOLV NT, and benzoic acid.
Standard preparation: A single external standard of GML (Medchem—97%) at 1 mg/mL was prepared in CHCl3. Standards of methyl benzoate and FINSOLV NT were also available. Saline (0.9% NaCl) was prepared in the lab.
Sample Extraction: The six samples were contained in 1.5 mL clear plastic micorcentrifuge tubes. The 30- and 60-min samples were clear while the 15-min samples contained a water insoluble residue (there appeared to be so much antimicrobial composition in the sample collected a separate phase was noted by the analyst). The liquid was vortexed and transferred to separate 10 mL graduated clinical centrifuge tubes and the volume recorded. The sample tubes were rinsed once with approximately 0.5 mL saline vortexed and transferred to the centrifuge tube. The microtubes were rinsed a second time with approximately 0.75 mL chloroform which was also transferred to the clinical centrifuge tube. The chloroform dissolved the residue in the 15 min samples. The liquid level in the centrifuge tubes was brought to 1.7 mL by the addition of saline solution. A sample (4.5 mL) of CHCl3 was then added to the centrifuge tubes using a 5-mL graduated glass pipette. The tubes were then sealed with TEFLON screw cap tops and vortexed for 2 min. They were then centrifuged in an IEC clinical centrifuge until 2 clear phases formed (approximately 5 min). Using Pasture pipettes, the lower (organic) phases were quantitatively transferred to a set of preweighed 7-mlL vials. The extracts were treated with diazomethane (DAM) which formed the methyl esters of acids present, in this case methyl benzoate from benzoic acid present. Extracts were placed on a warm heating block and taken to dryness under a stream of nitrogen. Once constant weight was obtained, the samples were re-weighed and the net weight was recorded. Using a graduated pipette enough CHCl3 was added back to the 15 min extracts to achieve a concentration of 1 mg/mL in GML. The 30 and 60 min samples had much less weight so an arbitrary ½ mL of CHCl3 was added. An aliquot of each sample was then transferred to an autosampler vial and analyzed by GC using the conditions below. Gas Chromatography: • Instrument—HP 5890 • Column—15 meter STABILWAX-DA, 0.25 μm film 0.25 mm ID • Carrier—He, 2.07×10^5 N/m^2(30 psi) constant pressure • Injection—2 μL split 1:60, injector temp 250° C. • Liner—Restek SILTEK deactivated liner with SILTEK • deactivated glass wool (catalog number 22406-213.5) • Program—110° C. initial, 7° C./min to 250°, hold 10 minutes • Detector—FID at 250° C.
The total recovered GML was determined by direct GC analysis of the fractions. […] As indicated above a standard of methyl benzoate was substituted for benzoic acid. The components have been identified and the FINSOLV TN contributes most of the peak area. […]

[2] = system: Organ of Corti hair cells; assay: Ototoxicity testing in chinchillas (trans bullar injection, Organ of Corti surface preparation); conditions: 0.1 cc into middle ear, two injections, 17 days
Text: Initial screening of selected components for ototoxic effect was preformed using chinchillas. The compounds or compounds plus vehicle were placed in proximity to the round window membrane of the chinchilla and the tissues evaluated for ototoxic insult.
General Test Procedure: Chinchillas were mildly anesthetized using 0.1 cc IM ketamine. The skin overlying the ventral aspect of the left and right bulla were shaved and surgically prepped. An amount (0.1 cubic centimeter (cc)) of the test material was placed in the middle ear near the round window niche using a 1 cc syringe with a 23 guage needle by trans bullar injection. Three days later the procedure was repeated using the same test material in each ear. Fourteen days after the second injection (total survival time=17 days) the animals were sacrificed. The bullae were removed, the cochlea isolated and perfused with fixative through the round window membrane. After standard preparation (fixation and decalcification) the samples were dissected and the Organ of Corti isolated and evaluated for ototoxic insult. The surface preparation analysis of the Organ of Corti is a universally accepted method of evaluating hair cell loss due to ototoxic insult. The chinchilla is the standard test animal used and a 14 day survival time is adequate to screen for gross hair cell disruption due to ototoxic effect. The materials were tested in both a right and left ear but using two different animals.
This served as a positive control.

[3] = recovered from middle ear saline 15 minutes after Example 2 formulation placed against tympanic membrane
[4] = recovered from middle ear saline 30 minutes after Example 2 formulation placed against tympanic membrane
[5] = total of 15, 30 and 60 minute samples, Example 2 formulation

O=C(O)c1ccccc1 [benzoic acid, Benzoic acid]
formulation component detected by GC in saline recovered from the middle ear [1]: detected

CCCCCCCCCCCC(=O)OCC(O)CO (stereo not drawn) [GML, Glycerol monolaurate]
formulation component detected by GC in saline recovered from the middle ear [1]: detected
Left ear GML [1, 3]: 10.3 mg
Right ear GML [1, 3]: 2.35 mg
Left ear GML [1, 4]: 0.03 mg
Right ear GML [1, 4]: 0.98 mg
Left ear GML (mg), Total [1, 5]: 10.33 mg
Right ear GML (mg), Total [1, 5]: 3.33 mg
Ototoxicity Result ([2]; 0.5% in water): No toxicity (no toxicity (rating 1))
Ototoxicity Result ([2]; 1% / 1.0% in water): No toxicity (no toxicity (rating 1))
Ototoxicity Result ([2]; 1% in IPM): Toxic (toxic (rating 2-4))

CCCCC(CC)COC(=O)CC(C(=O)OCC(CC)CCCC)S(=O)(=O)[O-].[Na+] (stereo not drawn) [GEMTEX (DOSS), Dioctylsulfosuccinate, sodium salt]
Ototoxicity Result ([2]; 1% / 1.0% in water): Toxic (toxic (rating 2-4))

Propylene glycol monocaprylate [PG monocaprylate]
Ototoxicity Result ([2]; 0.25% in water): No toxicity (no toxicity (rating 1))
Ototoxicity Result ([2]; 1% / 1.0% in water): No toxicity (no toxicity (rating 1))

CCCCCCCCCCCCCC(=O)OC(C)C [IPM, Isopropyl myristate]
Ototoxicity Result ([2]; 100%): Toxic (toxic (rating 2-4))
